Assay results taken from ChEMBL document CHEMBL1772971, “Novel 18F-labeled benzofuran derivatives with improved properties for positron emission tomography (PET) imaging of β-amyloid plaques in Alzheimer's brains” (J Med Chem, 2011).
The source made the active and inactive calls. No cut-off for these calls is given here.

Key:
[1] = molecular target: Amyloid-beta precursor protein (Homo sapiens) (UniProt P05067); assay: Binding affinity to beta amyloid plaques in human Alzheimer's disease brain at 444 kBq/50 uL after 1 hr by autoradiography; conditions: tested as the 18F-labelled form
[2] = Displacement of [125I]IMPY from amyloid beta (1 to 42) after 3 hrs by gamma counting
[3] = molecular target: Amyloid-beta precursor protein (Homo sapiens) (UniProt P05067); assay: Binding affinity to beta amyloid plaques in normal human brain at 444 kBq/50 uL after 1 hr by autoradiography; conditions: tested as the 18F-labelled form
[4] = system: Pancreas; assay: Biodistribution in ddY mouse pancreas at 185 to 370 kBq, iv after 60 mins by gamma counting; format: ADME, organism-based; conditions: in vivo, 1 h
[5] = system: Intestine; assay: Biodistribution in ddY mouse intestine at 185 to 370 kBq, iv after 2 mins by gamma counting; format: ADME, organism-based; conditions: in vivo
[6] = system: Stomach; assay: Biodistribution in ddY mouse stomach assessed per organ at 185 to 370 kBq, iv after 30 mins by gamma counting; format: ADME, organism-based; conditions: in vivo, 0.5 h
[7] = system: Brain; assay: Biodistribution in Tg2576 transgenic mouse brain at 11.1 MBq, iv after 30 mins by autoradiography; format: ADME, organism-based; conditions: in vivo, 0.5 h
[8] = system: Pancreas; assay: Biodistribution in ddY mouse pancreas at 185 to 370 kBq, iv after 30 mins by gamma counting; format: ADME, organism-based; conditions: in vivo, 0.5 h
[9] = system: Stomach; assay: Biodistribution in ddY mouse stomach assessed per organ at 185 to 370 kBq, iv after 2 mins by gamma counting; format: ADME, organism-based; conditions: in vivo
[10] = system: Lung; assay: Biodistribution in ddY mouse lung at 185 to 370 kBq, iv after 10 mins by gamma counting; format: ADME, organism-based; conditions: in vivo
[11] = system: Spleen; assay: Biodistribution in ddY mouse spleen at 185 to 370 kBq, iv after 2 mins by gamma counting; format: ADME, organism-based; conditions: in vivo
[12] = system: Stomach; assay: Biodistribution in ddY mouse stomach assessed per organ at 185 to 370 kBq, iv after 10 mins by gamma counting; format: ADME, organism-based; conditions: in vivo
[13] = system: Heart; assay: Biodistribution in ddY mouse […] at 185 to 370 kBq, iv after 2 mins by gamma counting; format: ADME, organism-based; conditions: in vivo
[14] = system: Kidney; assay: Biodistribution in ddY mouse kidney at 185 to 370 kBq, iv after 60 mins by gamma counting; format: ADME, organism-based; conditions: in vivo, 1 h
[15] = system: Blood; assay: Biodistribution in ddY mouse blood at 185 to 370 kBq, iv after 10 mins by gamma counting; format: ADME, organism-based; conditions: in vivo
[16] = system: Brain; assay: Biodistribution in ddY mouse brain at 185 to 370 kBq, iv after 60 mins by gamma counting; format: ADME, organism-based; conditions: in vivo, 1 h
[17] = system: Brain; assay: Biodistribution in ddY mouse brain at 185 to 370 kBq, iv after 30 mins by gamma counting; format: ADME, organism-based; conditions: in vivo, 0.5 h
[18] = system: Intestine; assay: Biodistribution in ddY mouse intestine at 185 to 370 kBq, iv after 10 mins by gamma counting; format: ADME, organism-based; conditions: in vivo
[19] = system: Pancreas; assay: Biodistribution in ddY mouse pancreas at 185 to 370 kBq, iv after 10 mins by gamma counting; format: ADME, organism-based; conditions: in vivo
[20] = system: Brain; assay: Biodistribution in ddY mouse brain at 185 to 370 kBq, iv after 2 mins by gamma counting; format: ADME, organism-based; conditions: in vivo
[21] = system: Lung; assay: Biodistribution in ddY mouse lung at 185 to 370 kBq, iv after 2 mins by gamma counting; format: ADME, organism-based; conditions: in vivo
[22] = system: Intestine; assay: Biodistribution in ddY mouse intestine at 185 to 370 kBq, iv after 60 mins by gamma counting; format: ADME, organism-based; conditions: in vivo, 1 h
[23] = system: Bone; assay: Biodistribution in ddY mouse bone at 185 to 370 kBq, iv after 60 mins by gamma counting; format: ADME, organism-based, Bone element; conditions: in vivo, 1 h
[24] = system: Heart; assay: Biodistribution in ddY mouse […] at 185 to 370 kBq, iv after 30 mins by gamma counting; format: ADME, organism-based; conditions: in vivo, 0.5 h
[25] = system: Brain; assay: Ratio of drug level in brain after 2 mins to brain after 60 mins in ddY mouse […] at 185 to 370 kBq, iv; format: ADME, organism-based; conditions: in vivo
[26] = system: Heart; assay: Biodistribution in ddY mouse […] at 185 to 370 kBq, iv after 10 mins by gamma counting; format: ADME, organism-based; conditions: in vivo
[27] = system: Spleen; assay: Biodistribution in ddY mouse spleen at 185 to 370 kBq, iv after 30 mins by gamma counting; format: ADME, organism-based; conditions: in vivo, 0.5 h
[28] = system: Kidney; assay: Biodistribution in ddY mouse kidney at 185 to 370 kBq, iv after 30 mins by gamma counting; format: ADME, organism-based; conditions: in vivo, 0.5 h
[29] = system: Spleen; assay: Biodistribution in ddY mouse spleen at 185 to 370 kBq, iv after 60 mins by gamma counting; format: ADME, organism-based; conditions: in vivo, 1 h
[30] = system: Heart; assay: Biodistribution in ddY mouse […] at 185 to 370 kBq, iv after 60 mins by gamma counting; format: ADME, organism-based; conditions: in vivo, 1 h
[31] = system: Lung; assay: Biodistribution in ddY mouse lung at 185 to 370 kBq, iv after 30 mins by gamma counting; format: ADME, organism-based; conditions: in vivo, 0.5 h
[32] = system: Kidney; assay: Biodistribution in ddY mouse kidney at 185 to 370 kBq, iv after 2 mins by gamma counting; format: ADME, organism-based; conditions: in vivo
[33] = system: Brain; assay: Biodistribution in wild type mouse brain at 11.1 MBq, iv after 30 mins by autoradiography; format: ADME, organism-based; conditions: in vivo, 0.5 h
[34] = system: Liver; assay: Biodistribution in ddY mouse liver at 185 to 370 kBq, iv after 60 mins by gamma counting; format: ADME, organism-based; conditions: in vivo, 1 h
[35] = system: Spleen; assay: Biodistribution in ddY mouse spleen at 185 to 370 kBq, iv after 10 mins by gamma counting; format: ADME, organism-based; conditions: in vivo
[36] = system: Bone; assay: Biodistribution in ddY mouse bone at 185 to 370 kBq, iv after 2 mins by gamma counting; format: ADME, organism-based, Bone element; conditions: in vivo
[37] = system: Kidney; assay: Biodistribution in ddY mouse kidney at 185 to 370 kBq, iv after 10 mins by gamma counting; format: ADME, organism-based; conditions: in vivo
[38] = system: Blood; assay: Biodistribution in ddY mouse blood at 185 to 370 kBq, iv after 60 mins by gamma counting; format: ADME, organism-based; conditions: in vivo, 1 h
[39] = system: Bone; assay: Biodistribution in ddY mouse bone at 185 to 370 kBq, iv after 10 mins by gamma counting; format: ADME, organism-based, Bone element; conditions: in vivo
[40] = system: Lung; assay: Biodistribution in ddY mouse lung at 185 to 370 kBq, iv after 60 mins by gamma counting; format: ADME, organism-based; conditions: in vivo, 1 h
[41] = system: Liver; assay: Biodistribution in ddY mouse liver at 185 to 370 kBq, iv after 30 mins by gamma counting; format: ADME, organism-based; conditions: in vivo, 0.5 h
[42] = system: Liver; assay: Biodistribution in ddY mouse liver at 185 to 370 kBq, iv after 10 mins by gamma counting; format: ADME, organism-based; conditions: in vivo
[43] = system: Pancreas; assay: Biodistribution in ddY mouse pancreas at 185 to 370 kBq, iv after 2 mins by gamma counting; format: ADME, organism-based; conditions: in vivo
[44] = system: Liver; assay: Biodistribution in ddY mouse liver at 185 to 370 kBq, iv after 2 mins by gamma counting; format: ADME, organism-based; conditions: in vivo
[45] = system: Brain; assay: Biodistribution in ddY mouse brain at 185 to 370 kBq, iv after 10 mins by gamma counting; format: ADME, organism-based; conditions: in vivo
[46] = system: Blood; assay: Biodistribution in ddY mouse blood at 185 to 370 kBq, iv after 30 mins by gamma counting; format: ADME, organism-based; conditions: in vivo, 0.5 h
[47] = system: Stomach; assay: Biodistribution in ddY mouse stomach assessed per organ at 185 to 370 kBq, iv after 60 mins by gamma counting; format: ADME, organism-based; conditions: in vivo, 1 h
[48] = system: Bone; assay: Biodistribution in ddY mouse bone at 185 to 370 kBq, iv after 30 mins by gamma counting; format: ADME, organism-based, Bone element; conditions: in vivo, 0.5 h
[49] = system: Intestine; assay: Biodistribution in ddY mouse intestine at 185 to 370 kBq, iv after 30 mins by gamma counting; format: ADME, organism-based; conditions: in vivo, 0.5 h
[50] = system: Blood; assay: Biodistribution in ddY mouse blood at 185 to 370 kBq, iv after 2 mins by gamma counting; format: ADME, organism-based; conditions: in vivo

Sequence of Amyloid-beta precursor protein (Homo sapiens) (P05067 whole entry): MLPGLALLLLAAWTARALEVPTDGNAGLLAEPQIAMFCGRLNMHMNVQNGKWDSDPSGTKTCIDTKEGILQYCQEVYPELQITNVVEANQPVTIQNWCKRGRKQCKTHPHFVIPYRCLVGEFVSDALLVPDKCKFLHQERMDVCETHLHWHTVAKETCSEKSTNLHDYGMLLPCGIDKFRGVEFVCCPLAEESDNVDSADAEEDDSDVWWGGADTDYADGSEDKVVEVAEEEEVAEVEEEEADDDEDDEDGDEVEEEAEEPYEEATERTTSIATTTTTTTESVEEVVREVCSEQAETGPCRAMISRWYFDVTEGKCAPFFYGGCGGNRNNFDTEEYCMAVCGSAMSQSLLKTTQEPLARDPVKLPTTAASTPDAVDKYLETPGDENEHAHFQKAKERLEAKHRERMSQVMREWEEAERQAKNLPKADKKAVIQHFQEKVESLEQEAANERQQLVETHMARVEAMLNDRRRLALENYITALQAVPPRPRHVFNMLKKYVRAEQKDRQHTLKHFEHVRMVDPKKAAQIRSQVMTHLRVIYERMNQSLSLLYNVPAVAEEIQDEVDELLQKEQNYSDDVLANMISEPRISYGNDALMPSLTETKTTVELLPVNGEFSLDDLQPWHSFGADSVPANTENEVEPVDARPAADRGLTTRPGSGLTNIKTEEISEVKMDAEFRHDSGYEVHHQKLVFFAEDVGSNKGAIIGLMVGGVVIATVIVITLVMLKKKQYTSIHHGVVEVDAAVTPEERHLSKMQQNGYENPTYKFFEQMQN

CNc1ccc(-c2cc3cc(OCCOCCOCCF)ccc3o2)cn1
Activity [1]: Active | Ki [2]: 2.41 nM

CNc1ccc(-c2cc3cc(OCCOCCOCCF)ccc3o2)cc1
Activity [3]: inactive | Ki [2]: 3.85 nM

CN(C)c1ccc(-c2cc3cc(OCCOCCOCCF)ccc3o2)cc1
Ki [2]: 2 nM

CNc1ccc(-c2cc3cc(OCCOCCOCC[18F])ccc3o2)cn1
Drug uptake [4]: 2.55 % ID/g | Drug uptake [5]: 4.24 % ID/g | Drug uptake [6]: 18.8 %ID | Drug uptake [7]: Active | Drug uptake [8]: 4.91 % ID/g | Drug uptake [9]: 3.73 %ID | Drug uptake [10]: 3.12 % ID/g | Drug uptake [11]: 2.91 % ID/g | Drug uptake [12]: 7.55 %ID | Drug uptake [13]: 5.19 % ID/g | Drug uptake [14]: 3.7 % ID/g | Drug uptake [15]: 3.02 % ID/g | Drug uptake [16]: 3.15 % ID/g | Drug uptake [17]: 4.03 % ID/g | Drug uptake [18]: 8.39 % ID/g | Drug uptake [19]: 2.68 % ID/g | Drug uptake [20]: 7.38 % ID/g | Drug uptake [21]: 5.68 % ID/g | Drug uptake [22]: 30.9 % ID/g | Drug uptake [23]: 1.72 % ID/g | Drug uptake [24]: 3.59 % ID/g | Ratio [25]: 2.34 | Drug uptake [26]: 2.51 % ID/g | Drug uptake [27]: 3.14 % ID/g | Drug uptake [28]: 7.83 % ID/g | Drug uptake [29]: 2.24 % ID/g | Drug uptake [30]: 2.6 % ID/g | Drug uptake [31]: 4.34 % ID/g | Drug uptake [32]: 11.9 % ID/g | Drug uptake [33]: Not Active | Drug uptake [34]: 8.71 % ID/g | Drug uptake [35]: 2.15 % ID/g | Drug uptake [36]: 2.65 % ID/g | Drug uptake [37]: 6.22 % ID/g | Drug uptake [38]: 2.42 % ID/g | Drug uptake [39]: 1.63 % ID/g | Drug uptake [40]: 2.88 % ID/g | Drug uptake [41]: 19.2 % ID/g | Drug uptake [42]: 17.5 % ID/g | Drug uptake [43]: 5.14 % ID/g | Drug uptake [44]: 16.8 % ID/g | Drug uptake [45]: 4.86 % ID/g | Drug uptake [46]: 2.66 % ID/g | Drug uptake [47]: 22.5 %ID | Drug uptake [48]: 1.79 % ID/g | Drug uptake [49]: 24.1 % ID/g | Drug uptake [50]: 4.96 % ID/g

CNc1ccc(/C=C/c2ccc(OCCOCCOCC[18F])nc2)cc1 [FLORBETAPIR F 18]
Ratio [25]: 3.8

CN(C)c1ccc(-c2cc3cc(OCCOCCOCC[18F])ccc3o2)cc1
Drug uptake [15]: 2.48 % ID/g | Drug uptake [16]: 2.8 % ID/g | Drug uptake [17]: 3.14 % ID/g | Drug uptake [20]: 2.88 % ID/g | Drug uptake [23]: 2.74 % ID/g | Ratio [25]: 1.02 | Drug uptake [36]: 1.19 % ID/g | Drug uptake [38]: 3.41 % ID/g | Drug uptake [39]: 1.76 % ID/g | Drug uptake [45]: 5.66 % ID/g | Drug uptake [46]: 2.68 % ID/g | Drug uptake [48]: 3.63 % ID/g | Drug uptake [50]: 1.64 % ID/g

CNc1ccc(-c2cc3cc(OCCOCCOCC[18F])ccc3o2)cc1
Drug uptake [7]: Active | Drug uptake [15]: 4.17 % ID/g | Drug uptake [16]: 3.87 % ID/g | Drug uptake [17]: 4.26 % ID/g | Drug uptake [20]: 8.18 % ID/g | Drug uptake [23]: 3.3 % ID/g | Ratio [25]: 2.11 | Drug uptake [33]: Not Active | Drug uptake [36]: 1.57 % ID/g | Drug uptake [38]: 7.33 % ID/g | Drug uptake [39]: 1.98 % ID/g | Drug uptake [45]: 6.43 % ID/g | Drug uptake [46]: 5.33 % ID/g | Drug uptake [48]: 2.07 % ID/g | Drug uptake [50]: 4.1 % ID/g

CNc1ccc(/C=C/c2ccc(OCCOCCOCC[18F])cc2)cc1 [FLORBETABEN F18]
Ratio [25]: 4.8

CNc1ccc(-c2nc3ccc(O)cc3s2)cc1 [PITTSBURGH COMPOUND B UNLABELLED]
Ki [2]: 9 nM

CN(C)c1ccc(-c2cc3cc(OCCOCCOCCF)ccc3o2)cn1
Ki [2]: 0.95 nM

CN(C)c1ccc(-c2cc3cc(OCCOCCOCC[18F])ccc3o2)cn1
Ratio [25]: 2.11
